Reference: patent US11052131B2, “Methods and pharmaceutical compositions for the treatment of kidney cancer” (INSERM (Institut National de la Santé et de la Recherche …, priority 2016, dated 2021)
Entries after “also recorded” stand apart in the source; their conditions may differ.

Key:
NFkB signaling = assay: mTOR signalling pathway in serum-starved RENCA cells: NFkB; format: cell-based, murine; conditions: lentiviral expression in RENCA cells, serum starvation
Procedure: (§1) RENCA cells overexpressing lentivirus encoding for wild type proEla, mutant proEla, or only tdTomato, were maintained in serum free media for different time. Cells were lysed in RIPA buffer (150 mM NaCl, 50 mM Tris, 1 mM EDTA, 1% NP40, 0.25% sodium deoxycholate, pH8) and were subjected to SDS-PAGE on 12% gels. Cell lysates were analyzed by western blotting for LC3, NFkB, Erk1/2, AKT, S6K or actin using anti phosphor NFkB, anti-phospho Erk, anti-phospho-Akt, anti-phospho S6K. The blots were stripped and reprobed with ERK, AKT or P70 (Cell Signaling) for data normalization. Primary antibodies were visualized using horseradish peroxidase-conjugated secondary antibodies (Amersham), and signals were detected using ECLPlus chemiluminescence system according to the manufacturers' instructions (Amersham).
(§2) To evaluate the role of Elabela on kidney cancer progression, we used RENCA cells expressing elabela or elabela mutated at the furin site. Cells wera starved of serum for 1, 3, 6, 12 or 24 hours and the effect of Elabela on the mTOR pathway was observed by lookind at the phosphorylation or nfkB, Erk1/2, akt, or S6K.

Renca cells [1] = assay: Wound healing assay; format: cell-based, murine; conditions: in vitro, 8 or 24 h after serum starvation
Procedure: Renca cells were cultivated until sub-confluency. A scratch is realized with a tip on each well and the wound healing is observed after 8 or 24 h after serum starvation.

PI3K signaling = assay: mTOR signalling pathway in serum-starved RENCA cells: PI3K (P(308)AKT); format: cell-based, murine; conditions: lentiviral expression in RENCA cells, serum starvation
Procedure: as §1, §2

Renca cells [2] = assay: Proliferation assay (IncuCyte ZOOM live cell imaging); format: cell-based, murine; conditions: 2% foetal calf serum, 50 hours
Procedure: FIG. 8. RENCA (20,000 cells 4 cells/well) cells were plated in 96-well plates, proliferation assay was performed using the IncuCyte ZOOM™ live cell imaging system (Essen BioScience, MI USA). This system measures cell density. Cells are routinely propagated in RPMI 1640 medium (Life Technologies) in 2% foetal calf serum at 37° C. Cells are regularly screened for Mycoplasma (ATCC). The plate is placed into the IncuCyte ZOOM™ apparatus and images of the collective cell spreading are recorded every 2 hours for a total duration of 50 hours.

LC3II = assay: mTOR signalling pathway in serum-starved RENCA cells: autophagy (LC3II); format: cell-based, murine; conditions: lentiviral expression in RENCA cells, serum starvation
Procedure: as §1, §2

mTORC1 pathway = assay: mTOR signalling pathway in serum-starved RENCA cells: mTORC1 (S6K and S6 phosphorylation); format: cell-based, murine; conditions: lentiviral expression in RENCA cells, serum starvation
Procedure: as §1, §2

ERK = ERK activation analysis (phospho-ERK western blot) in HEK293A GFP-APJ cells; format: cell-based, human; conditions: 1 μM; for phosphorylation of ERK: within 5 min of treatment
Procedure: (§3) Cells were lysed in RIPA buffer (150 mM NaCl, 50 mM Tris, 1 mM EDTA, 1% NP40, 0.25% sodium deoxycholate, pH8) and were subjected to SDS-PAGE on 12% gels. Cell lysates were analyzed by western blotting for ERK, AKT and P70 phosphorylation using an anti-phospho-ERK; anti-phospho-AKT and anti-phospho-P70 (Cell Signaling), respectively. The blots were stripped and reprobed with ERK, AKT or P70 (Cell Signaling) for data normalization. Primary antibodies were visualized using horseradish peroxidase-conjugated secondary antibodies (Amersham), and signals were detected using ECLPlus chemiluminescence system according to the manufacturers' instructions (Amersham).

Renca cells [3] = assay: Tumorigenicity assay, Renca cells injected subcutaneously into syngeneic Balb/c mice; format: in vivo; conditions: for tumor growth / tumor progression: 1×10^5 Renca cells stably expressing the construct (lentiviral), subcutaneous, vs control cells with empty vector; for tumor growth inhibition, wild type compared to mutant: subcutaneous Renca tumors, Balb/c mice
Renca cells [4] = assay: Kidney tumor progression, subcapsular inoculation of Renca cells in syngenic mice; format: in vivo; conditions: Renca cells expressing the construct (lentiviral), sub-capsular injection
Text: FIG. 3. Effect of Elabela expression in the kidney tumor cells (Renca) on kidney tumor progression. Elabela wild type (ela wt) or control lentivirus were used to express ela wt in Renca cells prior their subcapsular inoculation in syngenic mice.

recombinant human furin = recombinant human furin (Homo sapiens, UniProt P09958); assay: In vitro enzymatic digestion of Ela peptides with furin (western blot); format: biochemical; conditions: furin 0.2×10^−4U, 4 h, western blotting with anti-Ela antibody
Sequence of recombinant human furin (P09958 108-794): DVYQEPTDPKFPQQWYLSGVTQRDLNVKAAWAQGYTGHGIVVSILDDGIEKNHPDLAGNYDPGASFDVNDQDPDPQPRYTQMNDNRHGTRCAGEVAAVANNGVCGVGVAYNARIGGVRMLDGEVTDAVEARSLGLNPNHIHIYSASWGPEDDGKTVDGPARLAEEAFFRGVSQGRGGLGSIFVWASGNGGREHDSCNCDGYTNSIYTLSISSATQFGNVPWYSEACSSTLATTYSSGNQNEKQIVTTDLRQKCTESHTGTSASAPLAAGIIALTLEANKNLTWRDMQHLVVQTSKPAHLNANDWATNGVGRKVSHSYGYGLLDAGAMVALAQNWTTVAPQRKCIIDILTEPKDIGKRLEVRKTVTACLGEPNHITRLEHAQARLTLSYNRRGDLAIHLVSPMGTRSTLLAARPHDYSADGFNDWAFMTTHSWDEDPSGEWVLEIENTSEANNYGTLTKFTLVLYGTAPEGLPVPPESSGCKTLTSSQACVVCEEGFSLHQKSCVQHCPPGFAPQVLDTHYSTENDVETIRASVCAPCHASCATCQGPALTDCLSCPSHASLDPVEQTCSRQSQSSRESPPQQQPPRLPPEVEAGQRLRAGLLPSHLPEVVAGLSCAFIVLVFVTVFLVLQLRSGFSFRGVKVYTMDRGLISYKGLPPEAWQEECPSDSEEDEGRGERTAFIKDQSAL
Procedure: FIG. 4. ProEla processing. […] As assessed by western blotting using an anti-Ela antibody, furin processes the wild-type proEla 32 at the corresponding physiological cleavage sites.
Ela peptides were digested with furin for 4 h as previously described (Sfaxi et al., 2014, Scamuffa et al., 2008) and were subjected to Western blotting analysis.
The generated in vitro enzymatic digestion products were subjected to SDS-polyacrylamide gel electrophoresis in 13% gels. The primary antibody used was an anti-Ela 11 (Eurogentec). Horseradish peroxidase-conjugated secondary antibody and enhanced chemiluminescence (ECL+Plus, Amersham) were used for primary antibody revelation according to the manufacturers' instructions using a Chemiluminescence imaging system (GeneGnome, Syngene) (Sfaxi et al., 2014, Scamuffa et al., 2008).
The cDNA structure of human ELA predicts an 54 amino acids (aa) pre-proEla. Following the removal of the 22 aa of the signal peptide the hormone is released as proEla of 32 aa. […] To study the importance of the proteolytic maturation of […] by the PCs in the mediation of its function we first assessed experimentally proEla 32 processing by furin using an in vitro digestion assay.

mTORC2 signaling = assay: mTOR signalling pathway in serum-starved RENCA cells: mTORC2 (P(473)AKT); format: cell-based, murine; conditions: lentiviral expression in RENCA cells, serum starvation
Procedure: as §1, §2

ERK signaling = assay: mTOR signalling pathway in serum-starved RENCA cells: ERK signaling; format: cell-based, murine; conditions: lentiviral expression in RENCA cells, serum starvation
Procedure: as §1, §2

AKT = AKT activation analysis (phospho-AKT western blot) in HEK293A GFP-APJ cells; format: cell-based, human; conditions: 1 μM; for phosphorylation of AKT: seen after 5 min
Procedure: as §3

P70s6K = assay: P70 activation analysis (phospho-P70 western blot) in HEK293A GFP-APJ cells; format: cell-based, human; conditions: 1 μM, same conditions
Procedure: as §3

[5] = biological target: T1, human GFP-APJ fusion protein (Homo sapiens, UniProt P35414); assay: APJ receptor internalization assay in HEK293A cells expressing GFP-APJ; format: cell-based; conditions: 1 μM peptide, 30 min, HEK293 cells expressing GFP-APJ
T1 construct: expressed in transfected cells
T1 sequence (P35414 1-380): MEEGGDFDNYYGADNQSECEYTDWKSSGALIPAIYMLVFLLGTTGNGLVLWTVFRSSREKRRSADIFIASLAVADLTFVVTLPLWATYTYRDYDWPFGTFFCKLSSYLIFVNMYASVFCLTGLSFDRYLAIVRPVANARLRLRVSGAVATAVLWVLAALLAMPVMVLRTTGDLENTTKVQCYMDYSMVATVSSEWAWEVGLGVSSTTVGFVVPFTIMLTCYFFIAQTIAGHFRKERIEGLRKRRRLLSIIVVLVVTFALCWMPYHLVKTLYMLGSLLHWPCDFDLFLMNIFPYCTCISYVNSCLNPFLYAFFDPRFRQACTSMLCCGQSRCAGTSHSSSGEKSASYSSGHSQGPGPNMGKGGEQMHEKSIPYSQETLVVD
Procedure: Cells were fixed with 4% paraformaldehyde for 10 minutes at room temperature and APJ receptor internalization was analyzed using a Nikon epifluorescence microscopy.
Ligand-induced receptor internalization is a cellular response of APJ to ligand binding and its activation.

| Substance | NFkB signaling (NFkB signaling) | PI3K signaling, determined by P(308)AKT (PI3K signaling) | induction of autophagy, estimated by LC3II levels (LC3II) | phosphorylation of ERK after 15 min (ERK) | phosphorylation of ERK (ERK) | mTORC2 signaling, determined by P(473)AKT (mTORC2 signaling) | ERK signaling, determined by ERK phosphorylation (ERK signaling) | AKT activation compared to effect on ERK activation (AKT) | time of peak AKT phosphorylation (AKT) | phosphorylation of AKT (AKT) | P70s6K activation (P70s6K) | also measured |
| --- | --- | --- | --- | --- | --- | --- | --- | --- | --- | --- | --- | --- |
| QRPVNLTMRRKLRKHNCLQRRCMPLHSRVPFP [wild type proEla 32] | No effect in NFkB signaling | No effect in PI3K signaling | block in the induction of autophagy | reduced | able to induce the phosphorylation of ERK | No effect in mTORC2 signaling | enhanced inhibition of ERK signaling | lower AKT activation while compared to their effect on ERK activation | about 15 min | weak visible phosphorylation of AKT | failed to induce significant effect | wound healing of Renca cells (Renca cells [1]): inhibits wound healing of Renca cells; cells proliferation (Renca cells [2]): inhibits renca cells proliferation; mTORC1 pathway, determined by S6K and S6 phosphorylation (mTORC1 pathway; listed as WT): sustained activation of mTORC1 pathway; also recorded: induced mTORC1 activation; ERK activation compared between the peptides (ERK; same conditions): higher as compared to mut proEla and Ela 11 effect; tumor growth / tumor progression (Renca cells [3]; listed as Ela): inhibits tumor progression; tumor growth / tumor progression (Renca cells [3]; listed as wild type proEla): smaller size of tumors; tumor growth / tumor progression (Renca cells [3]; listed as wild-type proEla 32): reduced significantly tumor growth; tumor growth inhibition, wild type compared to mutant (Renca cells [3]): inhibit more efficiently tumor growth while compared to mutant proEla 32; tumor growth inhibition, wild type compared to mutant (Renca cells [3]; listed as Wild type proEla 32): inhibited more efficiently tumor growth while compared to mutant pro Ela 32; tumor progression (Renca cells [4]): inhibits tumor progression; processing by furin, products generated (recombinant human furin; listed as wild type proEla): generated predominantly the mature Ela 11 aa; processing by furin, products generated (recombinant human furin; listed as wild-type proEla 32): generates only the Ela 11 aa |
| mutant proEla 32: proEla 32 in which cleavage sites R31/R32 and R42/R43 were replaced by S31/S32 and S42/S43 (positions 9, 10, 20, 21 of SEQ ID NO: 1) (QRPVNLTMSSKLRKHNCLQSSCMPLHSRVPFP; listed as Homo sapiens) | No effect in NFkB signaling | No effect in PI3K signaling | block in the induction of autophagy | reduced | able to induce the phosphorylation of ERK | No effect in mTORC2 signaling | enhanced inhibition of ERK signaling | lower AKT activation while compared to their effect on ERK activation | about 15 min | weak visible phosphorylation of AKT | failed to induce significant effect | APJ internalization [5]: able to activate the APJ receptor and mediate its internalization; mTORC1 pathway, determined by S6K and S6 phosphorylation (mTORC1 pathway; listed as MUT): sustained activation of mTORC1 pathway; also recorded: induced mTORC1 activation; tumor growth / tumor progression (Renca cells [3]): reduced significantly tumor growth; tumor growth / tumor progression (Renca cells [3]; listed as mut ProEla): smaller size of tumors; tumor growth / tumor progression (Renca cells [3]; listed as mutant ELA polypeptide): capable of inhibiting tumor progression; processing by furin, products generated (recombinant human furin; listed as mut proEla 32): failed to generate any products; processing by furin, products generated (recombinant human furin; listed as mutant peptide ProEla 32): failed to generate any mature Ela products |
